Measurements from patent EP2401611B1, “IMPROVED METHODS FOR IDENTIFICATION” (Cambridge Enterprise Limited, priority 2009, dated 2010).
pEC50, pKd: −log10 of the molar value. Like-named read-outs stand apart in the source and are kept apart here.

Legend:
[1] = system: fetal rat pituicytes; assay: Rat pituicyte GH suppression assay; type: cell-based; conditions: Rattus norvegicus; for Emax: Table 3, percentage suppression compared to vehicle, read-out: Rat pituicyte GH suppression assay Max effect (%); for pEC50: Table 3, read-out: Rat pituicyte GH suppression assay ED50
From the text: Two different assays for "classical" sstr2 functions were adopted: (1) cultured foetal rat pituitary cells secreted growth hormone which is inhibited by sstr2 agonists in a dose-dependent fashion and (2) selected glucose-sensitive sub-clones of the human Panc-1 cell line secrete insulin which is inhibited by sstr2 agonists in a dose-dependent fashion.
Methods: Cultures of fetal rat pituicytes were established exactly as previously described (Murray et al. (2004) J. Clin. Endocrinol. Metab. 89:3027-32) by enzymatic dispersion. After 48hrs in low glucose DMEM plus 10% FCS, cells in 48 well plates (5 x 10^4 cells per well) were washed for 4hrs in serum-free DMEM and then incubated with test agents at various concentrations for a further 24hrs in serum-free DMEM. At the end of this period, the conditioned medium was harvested, any cell debris removed by centrifugation and assayed for GH using a commercially available ELISA (Linco; cat# EZRMGH-45K) in accordance with the manufacturer's instructions.
Results were reported as the mean ± SD, expressed as the fold change from cells in the presence of vehicle only.

[2] = molecular target: sstr2 (Homo sapiens, UniProt P30874); assay: [3H]-BN83250 equilibrium binding to THP-1 cells
Chain of sstr2 (P30874 whole entry): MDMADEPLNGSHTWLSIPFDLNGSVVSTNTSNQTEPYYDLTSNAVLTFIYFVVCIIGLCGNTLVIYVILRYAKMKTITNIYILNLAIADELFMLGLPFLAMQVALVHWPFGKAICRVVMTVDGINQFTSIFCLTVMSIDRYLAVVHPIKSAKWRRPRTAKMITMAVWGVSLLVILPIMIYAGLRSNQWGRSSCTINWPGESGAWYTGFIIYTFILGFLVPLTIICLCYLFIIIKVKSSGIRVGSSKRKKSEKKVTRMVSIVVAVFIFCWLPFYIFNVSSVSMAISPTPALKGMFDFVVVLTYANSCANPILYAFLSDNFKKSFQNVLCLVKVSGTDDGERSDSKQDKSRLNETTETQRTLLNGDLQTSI
Description: We have investigated the molecular interaction between BSCIs and the sstr2 receptor using conventional equilibrium binding studies employing labelled BSCI ligands.
For the analysis of binding, individual reactions were set up (in triplicate for each condition), with 1x10^6 THP-1 cells in Gey's Balanced Salt Solution, 10nM [^3H]-BN83250 (at 50 Ci/mmol) and various concentrations of (S)-3(2'2'-dimethylpropionoylamino)-tetrahydropyridin-2-one (10pM to 10µM). Excess (100µM) unlabelled BN83250 was used to determine the level of non-specific binding. After 2 hours at 4°C (conditions previously shown to achieve equilibrium binding, and which prevent uptake of the radioligand that would result in an over-estimate of binding) excess label was washed away by centrifugation (3 washes with 5ml of Gey's Balanced Salt Solution) and the bound radioactivity was determined by scintillation counting of the solubilised cell pellet.

[3] = system: THP-1 cells; assay: MCP-1 induced THP-1 cell migration (Transwell) assay; type: cell-based, human; conditions: for pEC50 / Emax: Homo sapiens, THP-1
Description: Leukocyte migration was measured using the 96-well format micro Transwell^RTM assay system from Neuroprobe (Gaithersburg, MD, USA). In principle, this assay consists of two chambers separated by a porous membrane. The chemoattractant is placed in the lower compartment and the cells are placed in the upper compartment. After incubation for a period at 37°C the cells move towards the chemoattractant, and the number of cells in the lower compartment is proportional to the chemoattractant activity (relative to a series of controls).
The method was performed essentially as previously described (Reckless & Grainger (1999) Biochem. J. 340:803-11).
First, the cell suspension to be placed in the upper compartment was prepared. The THP-1 cells were pelleted by centrifugation (770 x g; 4 mins) and washed with Geys Balanced Salt Solution with 1mg/ml BSA (GBSS + BSA). This wash was then repeated, and the cells re-pelleted before being resuspended in a small volume of GBSS + BSA for counting, for example using a standard haemocytometer.
The volume of GBSS + BSA was then adjusted depending on the number of cells present so that the cells were at final density of 4.45 x 10^6 cells per ml of GBSS + BSA. This ensured that there were 100,000 THP-1 cells in each 25µl of the solution to be placed in the upper chamber of the plate.
The suspension of THP-1 cells at 4.45 x 10^6 cells/ml was divided into three pots. To one pot the BSCI was added at an appropriate final concentration, in an appropriate vehicle (for example (S)- 3-(2',2'-dimethylpropanoylamino)-tetrahydropyridin-2-one was added at 1nM from a stock solution in GBSS). To the second pot, the BSCI was added at the same concentration as in the first pot, but additionally the sstr2 antagonist was also added (for example BIM 23454 [Tulipano et al. (2002) 143:1218-24] or BIM 23627 were added at 66nM final concentration from a stock solution in GBSS). To the third pot, GBSS + BSA plus vehicle as appropriate was added so that the volumes in three pots are equal, acting as a control.
Next, the chemoattractant solution to be placed in the lower compartment was prepared. […]. Note that, as recommended by Frow et al (Med. Res. Rev. 24:276-98) this is the concentration of MCP-1 which induces maximal migration in this system. This solution was divided into three pots, as for the cell suspension. To one pot, the BSCI was added to the same final concentration as was added to the cell suspension, in the second pot the BSCI and the sstr2 antagonist were both added at the same concentration as previously added to the cell suspension, while to the remaining pot GBSS + BSA plus vehicle as appropriate was added so that the volumes in the three pots were equal. Note that the volume of liquid that needs to be added to make the addition of the BSCI and the sstr2 antagonist compounds needs to be taken into account, when establishing the final concentration of MCP-1 in the solution for the lower compartment and the final concentration of cells in the upper compartment.
Once the chemoattractant solutions for the lower wells and cell solutions for the upper chambers were prepared, the migration chamber was assembled. 29 µl of the appropriate chemoattractant solution was placed into the lower well of the chamber. Assays were performed with at least triplicate determinations of each condition. Once all the lower chambers were filled, the porous membrane was applied to the chamber in accordance with the manufacturer's instructions. Finally, 25 µl of the appropriate cell solution was applied to each upper chamber. A plastic lid was placed over the entire apparatus to prevent evaporation.
The assembled chamber was incubated at 37 °C, 5% CO2, for 2 hours. A suspension of cells in GBSS + BSA was also incubated under identical conditions in a tube: these cells were used to construct a standard curve for determining the number of cells that migrated to the lower chamber under each condition. […]

[4] = system: rat peripheral blood leukocytes; assay: Rat chemokine-induced PBMC migration assay; type: cell-based; conditions: for pEC50 / Emax: Rattus norvegicus, Leukocyte, Table 3; for pEC50: read-out: Rat chemokine-induced PBMC migration assay ED50; for Emax: read-out: Rat chemokine-induced PBMC migration assay Max effect (%); for "Classical" : "BSCI" potency ratio Rat: Table 3, rat PBMC migration ED50 versus rat pituicyte GH suppression ED50
[5] = system: Jurkat T cells; assay: SDF-1α induced migration of parental Jurkat T cells; type: cell-based, human
Description: Jurkat T cells and Jurkat-D3B cells were induced to migrate in response to 100ng/ml SDF-1α (R&D systems; the concentration of SDF-1α which induced maximal cell migration in both lines). The BSCI BN83250 was then added at various concentrations between 0nM and 1000nM (each in triplicate) to both the upper and lower compartments (at the same concentration in each compartment, so as not to create a gradient of BSCI concentration). DMSO (1% final concentration) was used as the vehicle, and was present in all wells at equal concentration.

[6] = Table 3, read-out: Human chemokine-induced THP-1 migration assay ED50
[7] = Table 3, read-out: Human chemokine-induced THP-1 migration assay Max effect (%)

| SMILES | Emax [1] [%] | pEC50 [1] | inhibition of BN83250 binding ([2]; 1nM and above) | Hill Slope ([2]; competition with [3H]-BN83250) | pEC50 ([2]; read-out: ED50 for competition with [3H]-BN83250 binding at sstr2, 10nM [3H]-BN83250) | potency as BSCI relative to BN83253 ([3]; Fig. 5 compared with Fig. 4) | pEC50 [3, 6] | Emax [3, 7] [%] | "Classical" : "BSCI" potency ratio Human ([3]; Table 3, THP-1 migration ED50 versus Panc-2H4 insulin suppression ED50) | inhibition of MCP-1 induced cell migration (in words) ([3]; figure legends and text) | pEC50 [4] | Emax [4] [%] | "Classical" : "BSCI" potency ratio Rat [4] | pKd [2] | "Classical" : "BSCI" potency ratio Human [3] | pEC50 ([3]; Table 5, library screening hits, read-out: Chemokine-induced THP-1 cell migration assay ("BSCI" target) ED50) | Emax ([3]; Table 5, read-out: Chemokine-induced THP-1 cell migration assay ("BSCI" target) Max Effect (%)) [%] | pEC50 ([3]; read-out: ED50 for inhibition of chemokine-induced THP-1 cell migration) | RATIO ([3]; Table 5, THP-1 migration ED50 versus insulin suppression ED50) | effect on SDF-1α induced migration of parental Jurkat T cell line (in words) [5] |
| --- | --- | --- | --- | --- | --- | --- | --- | --- | --- | --- | --- | --- | --- | --- | --- | --- | --- | --- | --- | --- |
| CC(C)(C)C(=O)N[C@H]1CCCNC1=O [Valerolactam, (S)-3-(2'2'-dimethylpropionoylamino)-tetrahydropyridin-2-one] | 61 | 7.10 | 80-90% | approximately -1.0 | ~10.30 | 20-50 fold | 10.30 | 100 | <0.00005 | inhibits MCP-1 induced cell migration in a dose-dependent manner | 10.15 | 100 | 0.0009 |  |  |  |  |  |  |  |
| CCCCCCCCCCC(C)(C)C(=O)N[C@H]1CCCCNC1=O [BN83250, (S)-3-(2',2'-dimethyldodecanoyl)amino-caprolactam] | 63 | 6.49 |  |  |  |  | 10.05 | 100 |  |  | 9.55 | 100 | 0.0009 | ~7.10 | <0.00009 | 10.05 | 100 | > 9.00 | <0.00009 | little or no effect |
